The values below come from ChEMBL document CHEMBL3507680, “University of Dundee, Gates Library screen for HepG2 cell viability”.

The data set in a line: Human HepG2 cell viability assay in 384 well format. The class given is toxicity, cell-based. The arrangement: dose 125 nL, time 70.5 hour; concentration not given beside the values. Conditions: HepG2 cells, read-out: Inhibition.
For the molecule `O=C1O[C@@H]2CN(Cc3ccncc3)C[C@@H]2N1CCCN1CCOCC1`, the cytotoxicity at 70.5 h was -3.93%.
As for `CC(C)c1noc(C2CCCN2S(=O)(=O)N2CCCCCC2)n1` (configuration not stated), the cytotoxicity at 70.5 h is -6.79%.
Turning to `Nc1nc2nc(C3CCCN(C(=O)c4cnccn4)C3)ccc2s1` (configuration not stated), the cytotoxicity at 70.5 h was -3.81%.
Take `CC(C)OCc1noc(C2CC=CC2)n1`: the cytotoxicity at 70.5 h was -6.7%.
On to `O=C(Cc1ccc2c(c1)OCCO2)N1CCCC(n2cccn2)C1` (configuration not stated), for which the cytotoxicity at 70.5 h is -19.6%.
Consider `COC(=O)C(C)(C)NC(=O)c1cc(COc2ccccc2OC)[nH]n1`, for which the cytotoxicity at 70.5 h was found to be 10.6%.
Take `CCNC(=O)C(C)NC(=O)Nc1ccccc1SCC` (configuration not stated): the cytotoxicity at 70.5 h is -16.9%.
In the case of `CCC(NC(=O)c1cc(OC)c2c(c1)OCCO2)c1cccs1` (configuration not stated), the cytotoxicity at 70.5 h was -8.09%.
For `O=C(CCn1nc(C(=O)Nc2ccccc2)ccc1=O)Nc1nccs1` the value was 1.25%; for `CC(C)CC(NC(=O)CN(C)C(=O)c1ccco1)c1cccs1` (configuration not stated), -9.94%.
Take `CCN(C(=O)CCc1ccc2c(c1)OCO2)C1CC(=O)NC1=O` (configuration not stated): the cytotoxicity at 70.5 h worked out at 6.1%.
For `CCCOC1CCCN(C(=O)c2csc(S(N)(=O)=O)c2)C1` (configuration not stated) the value was 9.57%.
`O=C(Cn1cccc1)NCC1CCN(Cc2cc3ccccc3[nH]2)C1` (configuration not stated): the cytotoxicity at 70.5 h is -16.5%.
For `Cc1ncoc1C(=O)N1C[C@@H]2COC[C@]2(c2nnc(C3CC3)o2)C1`, the cytotoxicity at 70.5 h was -9.55%.
As to `O=S1(=O)CCC(c2nnc(-c3cnc4onc(C5CCCC5)c4c3)o2)C1` (configuration not stated), the cytotoxicity at 70.5 h turned out to be 20.9%.
On to `CCC(C)(NCc1nnc(C(C)(C)C)o1)c1nccs1` (configuration not stated), for which the cytotoxicity at 70.5 h is -0.157%.
On to `CN1CCN(Cc2c[nH]cn2)CC12CCC(=O)N(CC1CC1)CC2` (configuration not stated), for which the cytotoxicity at 70.5 h is 6.57%.
Then `CN(C)[C@@H]1CCN(c2ncccn2)[C@H]1Cc1ccccc1`, with -6.06%; and `CN(C)Cc1ccc(N2CCN(CCOCC(F)(F)F)CC2)nc1`, with 17.7%.
On to `CCN(C1CCN(Cc2ncc(C(C)(C)C)o2)CC1)S(C)(=O)=O`, for which the cytotoxicity at 70.5 h was -7.94%.
With `CCc1cc(C(F)(F)F)n2nc(C3CCCN3C3CCSCC3)cc2n1` (configuration not stated), the cytotoxicity at 70.5 h is -2.16%.
With `COc1ccc(NC(=O)Cc2c(C)nn(C)c2C)cc1F`, the cytotoxicity at 70.5 h came out at 7.37%.
`O=C(c1ccccc1F)N1CC[C@@H]2CN(c3ncccn3)CCO[C@@H]2C1`: the cytotoxicity at 70.5 h stood at 4.95%.
Regarding `Cc1occc1CNC(=O)N1CCC(Cc2cnn(C)c2)C1` (configuration not stated), the cytotoxicity at 70.5 h is -2.55%.
For `CN1CC2(CCN(C(=O)c3ccc(-n4cnnc4)cc3Cl)CC2)OC1=O` the value was -4.9%.
For `c1cnn(C2CN(Cc3nc(-c4ccsc4)no3)C2)c1`, the cytotoxicity at 70.5 h was -11.9%.
For `NC(=O)c1nc(-c2ccc(Cl)cc2Cl)oc1N`, the cytotoxicity at 70.5 h was -3.66%.
Turning to `Cc1cccc2cc(C(=O)N3CCSCC3)n(C)c12`, the cytotoxicity at 70.5 h was -3.37%.
As for `Cc1cn[nH]c1C1COCCN1Cc1cscn1` (configuration not stated), the cytotoxicity at 70.5 h is -13.2%.
Then `CCc1noc(CS(=O)(=O)c2cccc(OC)c2)n1`, with 4.71%.
As to `CC(=O)N1CCN(CCNS(=O)(=O)c2ccc(F)c(F)c2)CC1`, the cytotoxicity at 70.5 h was determined as 2.27%.
For `CN(Cc1cccnc1)CC1(O)CCCN(CC(C)(C)C)C1=O` (configuration not stated), the cytotoxicity at 70.5 h was -2.66%.
Then `COCC1CN(Cc2ccc(C)o2)Cc2nnn(C)c21` (configuration not stated), with -0.755%; and `COCCCS(=O)(=O)N1CCN(C(=O)CO)CC1`, with -0.333%; and `O=C(Nc1cccnc1)[C@H]1COC[C@H]2CN(C3CCCC3)C[C@H]21`, with 3.49%.
With `CCc1n[nH]c(C(=O)NCCn2nccc2C)c1C`, the cytotoxicity at 70.5 h was -5.81%.
In the case of `FC(F)CNc1cnc(C2CCCN2)cn1` (configuration not stated), the cytotoxicity at 70.5 h is 3.12%.
For `c1ccc(CN2CCCC2)c(CNc2cncc3nnnn23)c1` the value was -7.51%; for `CCCN1CCCN(C(=O)Nc2ccc3c(c2)OCO3)CC1`, -7.91%.
Then `COc1ccc(C(=O)N2CCCS2(=O)=O)cc1`, with -5.25%; and `COc1ccc2c(c1)nc1n2[C@@H](CN(C2CCC2)C2CCC2)COC1`, with 1.4%.
Consider `CN(Cc1cc(-c2ccccc2)no1)CC1CCCN1c1cccnn1` (configuration not stated), for which the cytotoxicity at 70.5 h was -8.09%.
Take `Fc1ccc2c(c1)C1(CCNCC1)CC2OCC1CC1` (configuration not stated): the cytotoxicity at 70.5 h was -7.69%.
With `COc1cc(C2CC(=O)NCc3nc4sccn4c32)cc(OC)c1O` (configuration not stated), the cytotoxicity at 70.5 h was -13.6%.
In the case of `CCCc1cnc(C)nc1NC(C)Cc1cnccn1` (configuration not stated), the cytotoxicity at 70.5 h was -5.97%.
As for `Cc1nn(C)c(C)c1C1CCCN1C(=O)c1ccc(N(C)C)nn1` (configuration not stated), the cytotoxicity at 70.5 h is -6.36%.
For `Cc1ccc(NC2CCN(C(=O)c3ccc(C#N)cc3)CC2)nn1`, the cytotoxicity at 70.5 h was -7.94%.
Consider `CCN(Cc1ccoc1)C(=O)NC1CCN(CC=C(C)C)CC1`, for which the cytotoxicity at 70.5 h amounted to 6.72%.
With `Cc1ccc(C(C)N(C)C(=O)c2ccc(=O)n(C)c2)s1` (configuration not stated), the cytotoxicity at 70.5 h was -0.24%.
For `CCOCC1CCN(C(=O)Nc2ccc3c(c2)CCCO3)C1` (configuration not stated) the value was 17.3%.
Then `Cc1nc(C)c(CCN2CCC(Oc3ccccc3F)CC2)s1`, with 8.23%.
Turning to `CC(=O)Nc1ccc(CN2CCOC2=O)cc1`, the cytotoxicity at 70.5 h was -9.56%.
For `COc1ccsc1C(=O)N1CCCC(n2cncn2)C1` (configuration not stated) the value was -2.59%; for `CC(=O)Nc1c(C)noc1/C=C\c1ccc(C)c(S(=O)(=O)NC2CC2)c1`, -6.84%.
For `COCC(=O)N1CCC2(CC(=O)N(c3cccc(F)c3)C2)C1` (configuration not stated), the cytotoxicity at 70.5 h is -9.01%.
With `Clc1ccccc1CNC(Cn1cncn1)c1ccccc1` (configuration not stated), the cytotoxicity at 70.5 h is 14.7%.
`O=C(CN1CCc2cncnc2C1)N1CCc2sccc2C1`: the cytotoxicity at 70.5 h is -11%.
In the case of `NC(=O)C1CCN(CCc2ccc(NC(=O)C3CCC3)cc2)CC1`, the cytotoxicity at 70.5 h is -1.87%.
Regarding `CCc1nnc(CN2CCC3(CCC(=O)N(C4CCCC4)C3)CC2)o1`, the cytotoxicity at 70.5 h is -7.05%.
Consider `Cc1csc(CNC(=O)Nc2ccc3c(c2)OCO3)n1`, for which the cytotoxicity at 70.5 h was -7.99%.
Regarding `NC(=O)C1CCN(C(=O)NC(Cc2ccccc2)C(F)(F)F)CC1` (configuration not stated), the cytotoxicity at 70.5 h came to 3.75%.
Take `CCc1nnc(CN(CC)C(=O)C2CC(=O)N(CC)C2)o1` (configuration not stated): the cytotoxicity at 70.5 h is -1.3%.
For `Cc1cccc(N(CC(=O)N2CCCCC2)C(=O)C2CCCO2)c1` (configuration not stated), the cytotoxicity at 70.5 h stood at 2.3%.
Take `Cc1ccc(-c2ccnc(N3CCC4(CCO4)CC3)n2)c(C)n1`: the cytotoxicity at 70.5 h was -6.98%.
For `CNS(=O)(=O)c1cccc(CNc2nccc(C(F)(F)F)n2)c1` the value was 53.4%; for `CCN(Cc1cc(Br)ccc1F)C(=O)C(C)NC(N)=O` (configuration not stated), -19.1%.
Then `CC(NC1(CNC(=O)CC(C)(C)C)CCOCC1)c1ccccc1` (configuration not stated), with -7.83%.
As to `Cc1cc(C)cc(NCCC(=O)NC2CCCCC2)c1`, the cytotoxicity at 70.5 h amounted to 1.57%.
Take `O=C(Cc1ccsc1)N1CCCC(CNS(=O)(=O)Cc2ccccc2)C1` (configuration not stated): the cytotoxicity at 70.5 h was -9.34%.
As to `CC(C)c1[nH]c2ncccc2c1CN1CCC(O)CC1`, the cytotoxicity at 70.5 h is -3.13%.
For `CCc1ccc2nc(C)cc(C(=O)N[C@@H]3CNC[C@H]3O)c2c1` the value was 25.1%; for `COc1ccsc1C(=O)N1CCCC(n2nc(C)cc2C)C1` (configuration not stated), -3.66%.
